Assays:
[1] = molecular target: T1, Amyloid beta 40 (Aβ40) aggregates (Homo sapiens, UniProt P05067); experiment: FRET with CRANAD-5 on Aβ[…] aggregates; apparent Kd printed in Results; assay type: binding; conditions: cited from earlier work
T1 construct: gene APP; synthetic amyloid-β peptide (1-40), aggregated

[2] = molecular target: T1, Amyloid beta 40 (Aβ40) aggregates; experiment: fluorescence titration of Aβ[…] aggregates, one-site binding fit

T1 sequence (P05067 672-711 limits assumed): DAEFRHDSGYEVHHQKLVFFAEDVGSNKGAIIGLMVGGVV

| Kd [2] | SMILES | Kd [1] |
| --- | --- | --- |
|  | CN(C)c1ccc(/C=C/C2=CC(/C=C/c3ccc(N(C)C)cc3)=[O+][B-](F)(F)O2)cc1 [CRANAD-2] | 0.038 µM |
| 0.0105 ± 0.0025 µM | CN(C)c1ccc(/C=C/C(=O)/C=C(O)/C=C/c2ccc(N(C)C)cc2)cc1 [CRANAD-5] |  |
